Laboratory results taken from article PMC4490784, “Compensatory induction of MYC expression by sustained CDK9 inhibition via a BRD4-dependent mechanism” (eLife, 2015).

Tests used:
Test in all cases: KINOMEscan binding assay
NEK5 = target: T1, NEK5 (Homo sapiens, UniProt Q6P3R8); settings: read-out: % Retention on Solid Support
T1 construct: purchased DiscoveRx KINOMEscan
Outline: (§1)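 Selectivity profiling used a competition-binding format directed at the kinase active site. The inhibitor was screened at 1 and 10 µM over a panel exceeding 400 kinases.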

ULK2 = target: T2, ULK2 (Homo sapiens, UniProt Q8IYT8); settings: read-out: % Retention on Solid Support
T2 construct: purchased DiscoveRx KINOMEscan
Outline: as §1

BMX = target: T3, BMX (Homo sapiens, UniProt P51813); settings: read-out: % Retention on Solid Support
T3 construct: purchased DiscoveRx KINOMEscan
Outline: as §1

IKK-epsilon = target: T4, IKK-epsilon (Homo sapiens, UniProt Q14164); settings: read-out: % Retention on Solid Support
T4 construct: purchased DiscoveRx KINOMEscan
Outline: as §1

MAK = target: T5, MAK (Homo sapiens, UniProt P20794); settings: read-out: % Retention on Solid Support
T5 construct: purchased DiscoveRx KINOMEscan
T5 sequence (P20794 whole entry): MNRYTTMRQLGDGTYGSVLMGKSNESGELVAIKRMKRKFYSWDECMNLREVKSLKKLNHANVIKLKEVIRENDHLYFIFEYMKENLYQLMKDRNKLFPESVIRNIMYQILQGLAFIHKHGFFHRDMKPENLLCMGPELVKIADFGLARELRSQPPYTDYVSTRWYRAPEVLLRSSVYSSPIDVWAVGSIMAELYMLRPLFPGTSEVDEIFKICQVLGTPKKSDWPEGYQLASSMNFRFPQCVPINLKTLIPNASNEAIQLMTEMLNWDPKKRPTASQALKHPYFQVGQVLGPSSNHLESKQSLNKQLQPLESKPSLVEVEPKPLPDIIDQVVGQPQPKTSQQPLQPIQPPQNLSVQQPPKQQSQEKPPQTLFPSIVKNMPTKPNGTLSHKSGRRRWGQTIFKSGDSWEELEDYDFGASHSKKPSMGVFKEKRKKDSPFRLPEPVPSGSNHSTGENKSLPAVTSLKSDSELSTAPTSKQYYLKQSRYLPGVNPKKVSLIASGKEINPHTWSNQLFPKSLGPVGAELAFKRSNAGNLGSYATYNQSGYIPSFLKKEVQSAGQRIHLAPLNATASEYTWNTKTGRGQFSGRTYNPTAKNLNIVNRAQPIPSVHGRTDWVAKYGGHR
Outline: as §1

PIK3CA(I800L) = target: T6, PIK3CA(I800L) (Homo sapiens, UniProt P42336, I800L); settings: 1 µM i-CDK9; read-out: % Retention on Solid Support
T6 construct: purchased DiscoveRx KINOMEscan
Outline: as §1

BLK = target: T7, BLK (Homo sapiens, UniProt P51451); settings: read-out: % Retention on Solid Support
T7 construct: purchased DiscoveRx KINOMEscan
Outline: as §1

PFCDPK1(P.falciparum) = target: T8, PFCDPK1(P.falciparum) (Plasmodium falciparum, UniProt P62344); settings: 1 µM i-CDK9; read-out: % Retention on Solid Support
T8 construct: purchased DiscoveRx KINOMEscan
Outline: as §1

CDK13 = target: T9, CDK13 (Homo sapiens, UniProt Q14004); settings: 1 µM i-CDK9
T9 construct: purchased DiscoveRx
Outline: as §1

PIK3CB = target: T10, PIK3CB (Homo sapiens, UniProt P42338); settings: read-out: % Retention on Solid Support
T10 construct: purchased DiscoveRx KINOMEscan
Outline: as §1

FRK = target: T11, FRK (Homo sapiens, UniProt P42685); settings: read-out: % Retention on Solid Support
T11 construct: purchased DiscoveRx KINOMEscan
T11 sequence (P42685 whole entry): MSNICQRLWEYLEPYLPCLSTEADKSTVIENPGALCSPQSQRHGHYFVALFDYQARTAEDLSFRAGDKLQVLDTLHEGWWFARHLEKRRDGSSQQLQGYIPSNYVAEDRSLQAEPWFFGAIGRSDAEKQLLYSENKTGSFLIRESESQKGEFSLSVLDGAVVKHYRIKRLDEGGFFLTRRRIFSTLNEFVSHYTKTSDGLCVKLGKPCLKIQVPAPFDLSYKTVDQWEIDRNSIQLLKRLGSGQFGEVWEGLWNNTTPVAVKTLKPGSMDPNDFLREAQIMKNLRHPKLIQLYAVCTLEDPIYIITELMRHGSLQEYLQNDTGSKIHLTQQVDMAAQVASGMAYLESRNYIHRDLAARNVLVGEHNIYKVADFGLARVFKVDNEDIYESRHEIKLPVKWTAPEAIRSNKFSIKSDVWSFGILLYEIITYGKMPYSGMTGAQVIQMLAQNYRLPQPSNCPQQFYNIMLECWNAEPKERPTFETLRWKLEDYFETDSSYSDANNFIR
Outline: as §1

PKN1 = target: T12, PKN1 (Homo sapiens, UniProt Q16512); settings: read-out: % Retention on Solid Support
T12 construct: purchased DiscoveRx KINOMEscan
Outline: as §1

DYRK2 = target: T13, DYRK2 (Homo sapiens, UniProt Q92630); settings: read-out: % Retention on Solid Support
T13 construct: purchased DiscoveRx KINOMEscan
T13 sequence (Q92630 1-601): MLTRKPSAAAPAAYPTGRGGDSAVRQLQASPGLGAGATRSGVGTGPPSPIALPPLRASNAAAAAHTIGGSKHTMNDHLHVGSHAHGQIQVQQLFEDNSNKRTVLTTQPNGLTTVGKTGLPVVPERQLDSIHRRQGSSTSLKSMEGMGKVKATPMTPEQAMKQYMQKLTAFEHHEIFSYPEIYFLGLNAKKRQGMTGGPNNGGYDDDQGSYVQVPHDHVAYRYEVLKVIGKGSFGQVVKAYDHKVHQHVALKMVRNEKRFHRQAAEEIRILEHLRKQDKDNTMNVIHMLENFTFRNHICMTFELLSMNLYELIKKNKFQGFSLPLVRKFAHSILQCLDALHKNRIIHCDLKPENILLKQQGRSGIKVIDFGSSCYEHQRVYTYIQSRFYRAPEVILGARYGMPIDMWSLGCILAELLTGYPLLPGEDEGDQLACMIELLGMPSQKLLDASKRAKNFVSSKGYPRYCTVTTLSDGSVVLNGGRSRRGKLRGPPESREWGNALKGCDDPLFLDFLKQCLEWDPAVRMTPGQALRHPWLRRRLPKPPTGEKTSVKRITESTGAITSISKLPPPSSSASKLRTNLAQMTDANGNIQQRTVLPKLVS
Outline: as §1

CDK4-cyclinD3 = target: T14, CDK4-cyclinD3 (Homo sapiens, UniProt P11802); settings: 1 µM i-CDK9; read-out: % Retention on Solid Support
T14 construct: purchased DiscoveRx KINOMEscan
Outline: as §1

GCN2(Kin.Dom.2,S808G) = target: T15, GCN2(Kin.Dom.2,S808G) (Homo sapiens, UniProt Q9P2K8, S808G); settings: read-out: % Retention on Solid Support
T15 construct: GCN2(Kin.Dom.2,S808G); purchased DiscoveRx KINOMEscan
Outline: as §1

EGFR(L861Q) = target: T16, EGFR(L861Q) (Homo sapiens, UniProt P00533, L861Q)
T16 construct: purchased DiscoveRx KINOMEscan
Outline: as §1

SNRK = target: T17, SNRK (Homo sapiens, UniProt Q9NRH2); settings: 1 µM i-CDK9; read-out: % Retention on Solid Support
T17 construct: purchased DiscoveRx KINOMEscan
Outline: as §1

RET(V804L) = target: T18, RET(V804L) (Homo sapiens, UniProt P07949, V804L); settings: read-out: % Retention on Solid Support
T18 construct: purchased DiscoveRx KINOMEscan
T18 sequence (P07949 29-1114 V804L): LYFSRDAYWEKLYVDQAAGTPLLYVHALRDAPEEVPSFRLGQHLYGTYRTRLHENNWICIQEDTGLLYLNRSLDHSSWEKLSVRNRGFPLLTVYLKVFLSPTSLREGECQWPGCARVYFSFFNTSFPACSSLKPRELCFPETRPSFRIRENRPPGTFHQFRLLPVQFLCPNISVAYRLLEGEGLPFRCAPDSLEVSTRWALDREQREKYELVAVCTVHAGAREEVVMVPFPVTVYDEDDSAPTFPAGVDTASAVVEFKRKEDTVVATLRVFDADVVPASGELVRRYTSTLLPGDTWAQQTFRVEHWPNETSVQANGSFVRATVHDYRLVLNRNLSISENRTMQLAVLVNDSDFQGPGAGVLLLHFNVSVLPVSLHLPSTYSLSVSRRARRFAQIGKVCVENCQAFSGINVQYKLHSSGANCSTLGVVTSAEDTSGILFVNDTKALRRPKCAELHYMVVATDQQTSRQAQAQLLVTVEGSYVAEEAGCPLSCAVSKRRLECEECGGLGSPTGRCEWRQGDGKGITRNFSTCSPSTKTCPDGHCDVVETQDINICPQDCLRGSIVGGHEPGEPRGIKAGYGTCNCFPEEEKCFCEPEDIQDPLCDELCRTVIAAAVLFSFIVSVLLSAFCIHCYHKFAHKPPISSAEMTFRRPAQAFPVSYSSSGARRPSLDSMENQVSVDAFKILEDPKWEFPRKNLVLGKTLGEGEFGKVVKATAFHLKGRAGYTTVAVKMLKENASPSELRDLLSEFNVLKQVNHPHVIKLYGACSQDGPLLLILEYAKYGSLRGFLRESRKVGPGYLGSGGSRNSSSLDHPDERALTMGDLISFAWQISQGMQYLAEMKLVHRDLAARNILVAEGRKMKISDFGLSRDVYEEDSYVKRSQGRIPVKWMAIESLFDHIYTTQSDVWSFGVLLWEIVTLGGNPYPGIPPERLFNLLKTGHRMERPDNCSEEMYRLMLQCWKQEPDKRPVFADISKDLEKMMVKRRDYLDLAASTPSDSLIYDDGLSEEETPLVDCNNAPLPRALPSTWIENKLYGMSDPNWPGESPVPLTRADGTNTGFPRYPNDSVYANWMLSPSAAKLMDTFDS
Outline: as §1

MAP3K3 = target: T19, MAP3K3 (Homo sapiens, UniProt Q99759); settings: read-out: % Retention on Solid Support
T19 construct: purchased DiscoveRx KINOMEscan
Outline: as §1

[1] = target: T20, RPS6KA5(Kin.Dom.1-N-terminal) (Homo sapiens, UniProt O75582); settings: read-out: % Retention on Solid Support
T20 construct: RPS6KA5(Kin.Dom.1-N-terminal); purchased DiscoveRx KINOMEscan
Outline: as §1

ERBB4 = target: T21, ERBB4 (Homo sapiens, UniProt Q15303); settings: read-out: % Retention on Solid Support
T21 construct: purchased DiscoveRx KINOMEscan
T21 sequence (Q15303 26-1308): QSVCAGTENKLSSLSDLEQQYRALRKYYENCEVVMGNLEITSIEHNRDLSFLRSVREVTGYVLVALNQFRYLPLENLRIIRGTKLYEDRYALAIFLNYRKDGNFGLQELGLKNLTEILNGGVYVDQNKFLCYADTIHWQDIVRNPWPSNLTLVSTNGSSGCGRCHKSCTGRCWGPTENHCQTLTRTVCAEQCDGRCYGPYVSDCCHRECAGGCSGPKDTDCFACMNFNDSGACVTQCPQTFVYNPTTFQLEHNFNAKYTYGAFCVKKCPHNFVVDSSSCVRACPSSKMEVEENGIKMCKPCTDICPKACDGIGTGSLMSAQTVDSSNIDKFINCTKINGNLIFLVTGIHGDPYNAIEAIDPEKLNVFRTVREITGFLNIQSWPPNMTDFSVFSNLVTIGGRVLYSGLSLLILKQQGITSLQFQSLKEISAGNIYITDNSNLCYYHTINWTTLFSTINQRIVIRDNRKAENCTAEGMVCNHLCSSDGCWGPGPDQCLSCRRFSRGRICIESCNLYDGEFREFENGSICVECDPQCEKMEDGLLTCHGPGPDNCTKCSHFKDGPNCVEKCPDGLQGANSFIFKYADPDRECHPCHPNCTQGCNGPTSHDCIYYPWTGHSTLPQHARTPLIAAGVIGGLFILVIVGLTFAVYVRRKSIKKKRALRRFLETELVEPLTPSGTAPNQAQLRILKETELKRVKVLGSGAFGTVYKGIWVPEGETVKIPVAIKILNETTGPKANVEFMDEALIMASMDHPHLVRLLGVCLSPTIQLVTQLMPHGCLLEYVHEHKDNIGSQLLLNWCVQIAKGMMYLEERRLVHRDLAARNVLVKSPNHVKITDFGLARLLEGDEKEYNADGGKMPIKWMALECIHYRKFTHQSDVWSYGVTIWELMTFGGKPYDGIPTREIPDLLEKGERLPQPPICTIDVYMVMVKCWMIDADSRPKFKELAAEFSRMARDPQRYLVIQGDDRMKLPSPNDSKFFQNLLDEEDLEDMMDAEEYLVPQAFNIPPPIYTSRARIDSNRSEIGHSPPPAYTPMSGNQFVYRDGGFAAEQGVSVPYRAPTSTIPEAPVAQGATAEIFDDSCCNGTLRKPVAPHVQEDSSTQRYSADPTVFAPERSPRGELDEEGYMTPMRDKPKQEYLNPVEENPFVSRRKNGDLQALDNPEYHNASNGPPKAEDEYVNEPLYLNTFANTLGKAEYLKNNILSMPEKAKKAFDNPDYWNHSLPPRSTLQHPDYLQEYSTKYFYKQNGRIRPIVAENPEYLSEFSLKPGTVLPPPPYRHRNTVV
Outline: as §1

DMPK2 = target: T22, DMPK2 (Homo sapiens, UniProt Q6DT37); settings: read-out: % Retention on Solid Support
T22 construct: purchased DiscoveRx KINOMEscan
T22 sequence (Q6DT37 whole entry): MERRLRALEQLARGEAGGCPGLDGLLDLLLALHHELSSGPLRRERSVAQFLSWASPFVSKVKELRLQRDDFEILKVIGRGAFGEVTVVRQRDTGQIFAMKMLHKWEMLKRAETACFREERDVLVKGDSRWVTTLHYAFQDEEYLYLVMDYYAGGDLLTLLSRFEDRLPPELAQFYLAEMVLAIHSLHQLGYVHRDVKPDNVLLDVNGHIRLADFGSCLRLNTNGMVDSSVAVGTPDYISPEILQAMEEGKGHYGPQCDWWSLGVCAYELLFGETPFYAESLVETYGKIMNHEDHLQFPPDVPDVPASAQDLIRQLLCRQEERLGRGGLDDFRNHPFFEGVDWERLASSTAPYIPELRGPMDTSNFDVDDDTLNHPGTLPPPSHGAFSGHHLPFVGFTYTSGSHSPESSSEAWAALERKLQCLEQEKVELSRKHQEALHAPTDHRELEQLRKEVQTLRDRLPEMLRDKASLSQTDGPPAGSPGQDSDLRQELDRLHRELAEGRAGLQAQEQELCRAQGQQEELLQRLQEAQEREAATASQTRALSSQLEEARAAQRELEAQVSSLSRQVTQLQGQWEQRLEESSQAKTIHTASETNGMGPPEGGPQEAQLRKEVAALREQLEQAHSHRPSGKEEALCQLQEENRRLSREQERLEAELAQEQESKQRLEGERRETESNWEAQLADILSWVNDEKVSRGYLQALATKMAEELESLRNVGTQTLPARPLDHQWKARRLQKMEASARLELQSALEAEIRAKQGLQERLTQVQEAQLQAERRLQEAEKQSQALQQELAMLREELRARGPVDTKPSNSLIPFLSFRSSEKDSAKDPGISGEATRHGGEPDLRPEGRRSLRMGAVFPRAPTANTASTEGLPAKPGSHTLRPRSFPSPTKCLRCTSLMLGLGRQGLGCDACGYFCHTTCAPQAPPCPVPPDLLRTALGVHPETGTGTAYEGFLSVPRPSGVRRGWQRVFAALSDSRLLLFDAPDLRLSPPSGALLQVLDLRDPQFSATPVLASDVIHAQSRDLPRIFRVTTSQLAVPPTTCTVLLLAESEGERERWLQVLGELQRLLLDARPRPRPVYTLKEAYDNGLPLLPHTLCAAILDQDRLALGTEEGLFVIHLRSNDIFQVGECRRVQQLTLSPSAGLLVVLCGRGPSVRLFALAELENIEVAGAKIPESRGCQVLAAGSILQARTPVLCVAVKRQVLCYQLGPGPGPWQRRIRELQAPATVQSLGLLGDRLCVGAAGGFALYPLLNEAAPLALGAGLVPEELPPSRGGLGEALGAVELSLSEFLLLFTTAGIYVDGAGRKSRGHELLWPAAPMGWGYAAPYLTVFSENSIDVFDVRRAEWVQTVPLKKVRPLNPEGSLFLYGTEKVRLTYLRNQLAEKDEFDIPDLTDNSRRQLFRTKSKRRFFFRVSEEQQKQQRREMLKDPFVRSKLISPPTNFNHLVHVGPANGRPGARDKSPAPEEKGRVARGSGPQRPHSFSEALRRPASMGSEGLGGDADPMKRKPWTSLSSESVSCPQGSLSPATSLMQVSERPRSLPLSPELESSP
Outline: as §1

Question: `N[C@H]1CC[C@H](Nc2cc(-c3cccc(NCc4cccc(F)c4)n3)c(Cl)cn2)CC1` [i-CDK9, N2′-(trans-4-aminocyclohexyl)-5′-chloro-N6-(3-fluorobenzyl)-2,4′-bipyridine-2′,6-diamine] was tested. Which remaining binding at 1 µM (NEK5; 1 µM i-CDK9) did it give?
Answer: Its remaining binding at 1 µM is 88%.

Question: And the remaining binding at 10 µM (NEK5; 10 µM i-CDK9)?
Answer: Its remaining binding at 10 µM is 100%.

Question: And the remaining binding at 1 µM (ULK2; 1 µM i-CDK9)?
Answer: The remaining binding at 1 µM was 100%.

Question: And the remaining binding at 10 µM (ULK2; 10 µM i-CDK9)?
Answer: The remaining binding at 10 µM was 100%.

Question: What about the remaining binding at 1 µM (BMX; 1 µM i-CDK9) of the same molecule?
Answer: The remaining binding at 1 µM was 96%.

Question: And the remaining binding at 10 µM (BMX; 10 µM i-CDK9)?
Answer: Its remaining binding at 10 µM is 81%.

Question: And the remaining binding at 1 µM (IKK-epsilon; 1 µM i-CDK9)?
Answer: The remaining binding at 1 µM was 95%.

Question: And the remaining binding at 10 µM (IKK-epsilon; 10 µM i-CDK9)?
Answer: Its remaining binding at 10 µM is 100%.

Question: And the remaining binding at 1 µM (MAK; 1 µM i-CDK9)?
Answer: Its remaining binding at 1 µM is 100%.

Question: What about the remaining binding at 10 µM (MAK; 10 µM i-CDK9) of the same molecule?
Answer: Its remaining binding at 10 µM is 30%.

Question: What about the remaining binding at 1 µM (PIK3CA(I800L)) of the same molecule?
Answer: Its remaining binding at 1 µM is 100%.

Question: And the remaining binding at 1 µM (BLK; 1 µM i-CDK9)?
Answer: The remaining binding at 1 µM was 100%.

Question: And the remaining binding at 10 µM (BLK; 10 µM i-CDK9)?
Answer: The remaining binding at 10 µM was 100%.

Question: And the remaining binding at 1 µM (PFCDPK1(P.falciparum))?
Answer: The remaining binding at 1 µM was 100%.

Question: What about the “% binding to immobilized ligand” value (CDK13) of the same molecule?
Answer: The value was 100%.

Question: What about the remaining binding at 1 µM (PIK3CB; 1 µM i-CDK9) of the same molecule?
Answer: The remaining binding at 1 µM was 68%.

Question: And the remaining binding at 10 µM (PIK3CB; 10 µM i-CDK9)?
Answer: The remaining binding at 10 µM was 84%.

Question: And the remaining binding at 1 µM (FRK; 1 µM i-CDK9)?
Answer: Its remaining binding at 1 µM is 72%.

Question: And the remaining binding at 10 µM (FRK; 10 µM i-CDK9)?
Answer: Its remaining binding at 10 µM is 100%.

Question: What about the remaining binding at 1 µM (PKN1; 1 µM i-CDK9) of the same molecule?
Answer: Its remaining binding at 1 µM is 73%.

Question: And the remaining binding at 10 µM (PKN1; 10 µM i-CDK9)?
Answer: Its remaining binding at 10 µM is 100%.

Question: What about the remaining binding at 1 µM (DYRK2; 1 µM i-CDK9) of the same molecule?
Answer: Its remaining binding at 1 µM is 7.1%.

Question: What about the remaining binding at 10 µM (DYRK2; 10 µM i-CDK9) of the same molecule?
Answer: Its remaining binding at 10 µM is 33%.

Question: What about the remaining binding at 1 µM (CDK4-cyclinD3) of the same molecule?
Answer: The remaining binding at 1 µM was 100%.

Question: What about the remaining binding at 1 µM (GCN2(Kin.Dom.2,S808G); 1 µM i-CDK9) of the same molecule?
Answer: The remaining binding at 1 µM was 100%.

Question: And the remaining binding at 10 µM (GCN2(Kin.Dom.2,S808G); 10 µM i-CDK9)?
Answer: The remaining binding at 10 µM was 100%.

Question: And the “% Retention on Solid Support” value (EGFR(L861Q); 1 µM i-CDK9)?
Answer: Its value is 78%.

Question: And the “% Retention on Solid Support” value (EGFR(L861Q); 10 µM i-CDK9)?
Answer: Its value is 74%.

Question: What about the remaining binding at 1 µM (SNRK) of the same molecule?
Answer: The remaining binding at 1 µM was 64%.

Question: And the remaining binding at 1 µM (RET(V804L); 1 µM i-CDK9)?
Answer: The remaining binding at 1 µM was 100%.

Question: What about the remaining binding at 10 µM (RET(V804L); 10 µM i-CDK9) of the same molecule?
Answer: Its remaining binding at 10 µM is 79%.

Question: And the remaining binding at 1 µM (MAP3K3; 1 µM i-CDK9)?
Answer: Its remaining binding at 1 µM is 100%.

Question: And the remaining binding at 10 µM (MAP3K3; 10 µM i-CDK9)?
Answer: The remaining binding at 10 µM was 93%.

Question: What about the remaining binding at 1 µM ([1]; 1 µM i-CDK9) of the same molecule?
Answer: The remaining binding at 1 µM was 79%.

Question: What about the remaining binding at 10 µM ([1]; 10 µM i-CDK9) of the same molecule?
Answer: The remaining binding at 10 µM was 100%.

Question: What about the remaining binding at 1 µM (ERBB4; 1 µM i-CDK9) of the same molecule?
Answer: Its remaining binding at 1 µM is 100%.

Question: What about the remaining binding at 10 µM (ERBB4; 10 µM i-CDK9) of the same molecule?
Answer: Its remaining binding at 10 µM is 100%.

Question: What about the remaining binding at 1 µM (DMPK2; 1 µM i-CDK9) of the same molecule?
Answer: Its remaining binding at 1 µM is 100%.

Question: And the remaining binding at 10 µM (DMPK2; 10 µM i-CDK9)?
Answer: The remaining binding at 10 µM was 100%.
